According to patent publication US6838436B1, “Inhibitors of proteasomal activity for stimulating bone growth” (Osteoscreen Inc., priority 1998, dated 2005):
Read-outs that look alike come from different tables or passages of the source. Where a SMILES comes first, the peptide text is derived from it. [ ]: non-standard residue; d: D form. The star is where a group is joined. Nva = CCC[C@H](N)C(=O)O; Cbz = O=C(OCc1ccccc1)*; OtBu = CC(C)(C)O*

Legend:
[1] = target: T1, 20S thermophila proteasome (Methanosarcina thermophila, UniProt Q9P992); test: biochemical
T1 construct: purchased CalBiochem, San Diego, Calif
T1 sequence (Q9P992 10-210): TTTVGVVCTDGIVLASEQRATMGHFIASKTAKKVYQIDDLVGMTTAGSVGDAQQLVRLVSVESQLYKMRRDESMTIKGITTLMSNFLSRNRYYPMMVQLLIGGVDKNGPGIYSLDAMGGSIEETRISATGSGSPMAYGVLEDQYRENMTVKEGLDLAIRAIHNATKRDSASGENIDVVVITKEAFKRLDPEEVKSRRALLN
T1 sequence (Q59565 1-247 partner): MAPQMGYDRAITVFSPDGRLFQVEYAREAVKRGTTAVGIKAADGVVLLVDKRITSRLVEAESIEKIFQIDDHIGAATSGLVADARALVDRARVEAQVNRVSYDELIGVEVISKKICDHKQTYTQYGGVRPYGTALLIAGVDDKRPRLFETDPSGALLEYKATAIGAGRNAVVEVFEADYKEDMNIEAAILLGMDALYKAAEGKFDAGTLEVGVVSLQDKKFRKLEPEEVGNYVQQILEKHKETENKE
Method: The assay involves incubating the potential inhibitor with 20S thermophila proteasomes which, in purified form, are commercially available, with a fluorogenic peptide substrate. The presence of an inhibitor will reduce the amount of fluorescence generated by the action of the proteasome fraction on the fluorogenic peptide. This assay is described in further detail in Coux, O., et al., N Rev Biochem (1996) 65:801; Adams, J., et al., Cancer Res (1999) 59:2615; and Craiu, A., et al., J Biol Chem (1997) 272:13437. Further reports are set forth in Hilt, W., et al., Trans Biochem Sci (1996) 21:96; Peters, J., Trends Biochem Sci (1994) 19:377; Maupin-Furlow, J. A., et al., J Biol Chem (1995) 270:28617; and Jensen, T. J., et al., Cell (1995) 83:129. Fluorogenic substrates and purified proteasomes are available, for example, from CalBiochem, San Diego, Calif.
Purified 20S thermophila proteasomes and the fluorogenic peptide substrate Suc-Leu-Leu-Val-Tyr-AMC (SEQ ID NO:3) are available from CalBiochem, San Diego, Calif. Briefly, serial dilutions of the inhibitor to be tested were mixed with proteasome solution at a concentration of proteasome of 0.01 mg/ml. After 30 min incubation at 37° C., substrate solution at a final concentration of 25-30 μg/ml was added and the mixture incubated at 37° C. and then read at 15 min, 30 min, and 60 min in a Fluoroscan instrument. The percentage diminution in fluorescence in the presence as compared to the absence of inhibitor is then calculated.

[2] = system: hair follicles; test: Induction of anagen in hair follicles in vivo (Example 12); design: species or system C57 black mice; conditions: for hair follicle differentiation in vivo: examined 16 days later
Method: Inhibitors of the proteasomal chymotrypsin-like activity were treated for their capacity to induce transit of hair follicles into anagen in vivo in C57 black mice eight weeks of age.

[3] = system: neonatal mouse calvaria; test: Neonatal mouse calvaria assay (in vitro / ex vivo) for bone formation; assay type: cell-based, ICR Swiss white mouse; conditions: for EC50: read-out: Bone Formation (ED50-μM)
Method: An assay for bone resorption or bone formation is similar to that described by Gowen M. & Mundy G., J Immunol (1986) 136:2478-82. Briefly, four days after birth, the front and parietal bones of ICR Swiss white mouse pups are removed by microdissection and split along the sagittal suture. In an assay for resorption, the bones are incubated in BGJb medium (Irvine Scientific, Santa Ana, Calif.) plus 0.02% (or lower concentration) β-methylcyclodextrin, wherein the medium also contains test or control substances. The medium used when the assay is conducted to assess bone formation is Fitton and Jackson Modified BGJ Medium (Sigma) supplemented with 6 μg/ml insulin, 6 μg/ml transferrin, 6 ng/ml selenous acid, calcium and phosphate concentrations of 1.25 and 3.0 mM, respectively, and ascorbic acid to a concentration of 100 μg/ml is added every two days. The incubation is conducted at 37° C. in a humidified atmosphere of 5% CO2 and 95% air for 96 hours.
Following this, the bones are removed from the incubation media and fixed in 10% buffered formalin for 24-48 hours, decalcified in 14% EDTA for 1 week, processed through graded alcohols; and embedded in paraffin wax. Three […] sections of the calvaria are prepared. Representative sections are selected for histomorphometric assessment of bone formation or bone resorption. Bone changes are measured on sections cut 200 μm apart. Osteoblasts and osteoclasts are identified by their distinctive morphology.
Selected compounds and appropriate controls were assayed in vitro (ex vivo) for bone formation activity (described above in “Techniques for Neonatal Mouse Calvaria Assay (in vitro)). Histomorphometrical assessments of ex vivo calvaria were carried out using an OsteoMetrics bone morphometry measurement program, according to the manufacturer's instructions. Measurements were determined using either a 10- or 20-fold objective with a standard point counting eyepiece graticule.
New bone formation was determined (using a 10× objective) by measuring the new bone area formed in one field in 3 representative sections of each bone (4 bones per group). Each measurement was carried out ½ field distance from the end of the suture. Both total bone and old bone area were measured. Data were expressed as new bone area in μm^2.
Osteoblast numbers are determined by point counting. The number of osteoblast cells lining the bone surface on both sides of the bone are counted in one field using a 20× objective. Data are expressed as osteoblast numbers/mm of bone surface. […]

[4] = Mus musculus, calvarial assay in vitro
[5] = read-out: Proteasome Activity (ED50-μM)
[6] = read-out: % Proteasomal Activity

| Molecule | IC50 [1] [nM] | new bone formation in the in vitro calvarial assay [3] | EC50 [3, 4] [µM] | EC50 [1] [µM] | EC50 [1, 5] [µM] | remaining activity at 0.002 µM [1, 6] [%] | remaining activity at 0.004 µM [1, 6] [%] | remaining activity at 0.008 µM [1, 6] [%] | remaining activity at 0.016 µM [1, 6] [%] | remaining activity at 0.032 µM [1, 6] [%] | remaining activity at 0.062 µM [1, 6] [%] | remaining activity at 0.125 µM [1, 6] [%] | remaining activity at 0.25 µM [1, 6] [%] | remaining activity at 0.5 µM [1, 6] [%] | remaining activity at 1 µM [1, 6] [%] | further results |
| --- | --- | --- | --- | --- | --- | --- | --- | --- | --- | --- | --- | --- | --- | --- | --- | --- |
| CC[C@H](C)[C@H](NC(=O)[C@H]([C@@H](C)CC)N(C)C(C)=O)C(=O)N[C@H](C(=O)N[C@@H](CC(C)C)C(=O)[C@@]1(C)CO1)[C@@H](C)O [Epoxomicin] | ~60 |  |  |  |  |  |  |  |  |  |  |  |  |  |  | hair follicle differentiation in vivo ([2]; dose not given, subcutaneously in the scalp daily for 5 days): increased hair follicle differentiation in vivo |
| CC(=O)N[C@@H](CSC(=O)[C@]1([C@@H](O)C(C)C)NC(=O)[C@H](C)[C@@H]1O)C(=O)O [Lactacystin, lactacystin] |  | showed new bone formation | 1 | 1.5 |  |  |  |  |  |  |  |  |  |  |  |  |
| CCC[C@@H](C=O)NC(=O)[C@H](CC(C)C)NC(=O)[C@H](CC(C)C)NC(=O)OCc1ccccc1 [MG-115, N-carbobenzoyl-Leu-Leu-Nva-CHO] (Cbz-Leu-Leu-[Nva]-aldehyde) |  | positive results although less dramatic than those of simvastatin | 1 |  | 1 |  |  |  |  |  |  |  |  |  |  |  |
| CC(C)C[C@@H](C=O)NC(=O)[C@@H](CC(C)C)NC(=O)[C@H](CC(C)C)NC(=O)OCc1ccccc1 [MG-132, N-carbobenzoyl-Leu-Leu-Leu-CHO] (Cbz-Leu-[dL]-Leu-aldehyde) |  | showed new bone formation |  |  | 0.3 | 101 | 99 | 101 | 100 | 98 | 90 | 87 | 73 | 57 | 44 | EC50 ([3]; Mus musculus): 0.5 µM; remaining activity at 2 µM [1, 6]: 19% |
| CC[C@H](C)[C@H](NC(=O)OCc1ccccc1)C(=O)N[C@@H](CCC(=O)OC(C)(C)C)C(=O)N[C@@H](C)C(=O)N[C@H](C=O)CC(C)C [PSI, N-carbobenzoyl-Ile-Glu-(OtBu)-Ala-Leu-CHO] (Cbz-IE(OtBu)AL-aldehyde) | ~60 |  | 0.03 | 0.035 |  | 100 | 95 | 94 | 86 | 76 | 54 | 30 | 11 | 6 | 5 | inducing bone formation compared with BMP-2 and bFGF [3]: as good as, or better than, BMP-2 and bFGF; hair follicle differentiation in vivo ([2]; 5 mg/kg/day subcutaneously in the scalp daily for 5 days): increased hair follicle differentiation in vivo |
| simvastatin |  | showed new bone formation |  |  |  |  |  |  |  |  |  |  |  |  |  | EC50 ([3]; calvarial assay in vitro): 0.2 µM; effect on hair follicles ([2]; injected locally into the subcutaneous tissue in sufficient concentrations to cause local periosteal bone formation): had no effect on hair follicles |
